Experimental findings from ChEMBL document CHEMBL3813616, “Discovery of novel 7-azaindoles as PDK1 inhibitors” (Bioorg Med Chem Lett, 2016) are described below.

The structures appear in SMILES notation.

Test [1] has as its target Casein kinase II (Homo sapiens) (UniProt P67870+P68400+P19784). Put plainly: Inhibition of human CK2 assessed as enzyme activity at 1 uM using 33P ATP by radioactive filter binding assay. The format is protein-complex assay. More on the design: scale not given: the % may be the effect or the level left.
Test [2] has as its target T1, 3-phosphoinositide-dependent protein kinase 1 (Homo sapiens) (UniProt O15530).
T1 sequence (whole entry): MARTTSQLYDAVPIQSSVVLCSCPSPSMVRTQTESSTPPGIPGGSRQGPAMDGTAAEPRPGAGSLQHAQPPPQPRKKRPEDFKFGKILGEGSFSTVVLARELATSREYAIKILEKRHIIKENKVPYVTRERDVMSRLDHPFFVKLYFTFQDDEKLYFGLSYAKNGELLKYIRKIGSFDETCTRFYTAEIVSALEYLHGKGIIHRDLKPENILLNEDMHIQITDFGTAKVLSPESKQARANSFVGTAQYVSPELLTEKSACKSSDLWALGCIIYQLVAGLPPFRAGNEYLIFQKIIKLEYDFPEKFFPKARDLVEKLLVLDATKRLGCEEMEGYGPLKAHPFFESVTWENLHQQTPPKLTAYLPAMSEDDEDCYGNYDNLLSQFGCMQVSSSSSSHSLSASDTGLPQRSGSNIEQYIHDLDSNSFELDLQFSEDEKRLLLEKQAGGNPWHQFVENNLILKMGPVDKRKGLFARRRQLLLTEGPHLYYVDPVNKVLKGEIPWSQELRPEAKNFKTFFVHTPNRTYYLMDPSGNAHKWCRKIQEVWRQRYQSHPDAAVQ
The test is described as follows: Inhibition of human PDK1 (52 to 556 residues) assessed as enzyme activity at 1 uM using 33P ATP by radioactive filter binding assay. Details: scale not given: the % may be the effect or the level left.

Test [3] addresses Tyrosine-protein kinase SYK (Homo sapiens) (UniProt P43405). The test is described as follows: Inhibition of human SYK (1 to 635 residues) assessed as enzyme activity at 1 uM using 33P ATP by radioactive filter binding assay. Details: scale not given: the % may be the effect or the level left.
Test [4] has as its target Glycogen synthase kinase-3 beta (Homo sapiens) (UniProt P49841). Put plainly: Inhibition of human GSK3beta (2 to 420 residues) assessed as enzyme activity at 1 uM using 33P ATP by radioactive filter binding assay. Details: scale not given: the % may be the effect or the level left.
The target in test [5] is T2, Serine/threonine-protein kinase BRSK2 (Homo sapiens) (UniProt Q8IWQ3).
T2 sequence (whole entry): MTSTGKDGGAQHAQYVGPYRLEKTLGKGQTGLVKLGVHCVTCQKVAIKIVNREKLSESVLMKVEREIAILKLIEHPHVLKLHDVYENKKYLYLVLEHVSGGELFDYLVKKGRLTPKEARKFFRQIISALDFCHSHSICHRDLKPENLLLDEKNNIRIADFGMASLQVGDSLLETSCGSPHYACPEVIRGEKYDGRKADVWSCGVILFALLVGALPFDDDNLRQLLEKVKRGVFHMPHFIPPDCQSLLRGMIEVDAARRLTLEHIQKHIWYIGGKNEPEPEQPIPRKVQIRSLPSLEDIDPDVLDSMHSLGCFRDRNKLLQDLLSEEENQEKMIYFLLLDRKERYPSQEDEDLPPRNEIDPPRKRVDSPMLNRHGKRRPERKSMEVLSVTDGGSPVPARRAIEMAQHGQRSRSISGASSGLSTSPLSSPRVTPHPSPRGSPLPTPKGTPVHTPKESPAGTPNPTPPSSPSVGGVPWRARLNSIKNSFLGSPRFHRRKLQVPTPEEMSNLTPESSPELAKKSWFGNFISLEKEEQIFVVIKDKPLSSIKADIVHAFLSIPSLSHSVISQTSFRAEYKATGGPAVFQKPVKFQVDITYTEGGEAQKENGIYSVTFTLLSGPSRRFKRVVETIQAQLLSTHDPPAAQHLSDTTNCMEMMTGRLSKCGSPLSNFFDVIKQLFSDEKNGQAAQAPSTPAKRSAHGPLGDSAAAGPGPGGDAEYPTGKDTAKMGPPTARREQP
The test is described as follows: Inhibition of human BRSK2 (2 to 674 residues) assessed as enzyme activity at 1 uM using 33P ATP by radioactive filter binding assay. More on the design: scale not given: the % may be the effect or the level left.

Test [6] deals with T3, Mitogen-activated protein kinase 13 (Homo sapiens) (UniProt O15264).
T3 sequence (whole entry): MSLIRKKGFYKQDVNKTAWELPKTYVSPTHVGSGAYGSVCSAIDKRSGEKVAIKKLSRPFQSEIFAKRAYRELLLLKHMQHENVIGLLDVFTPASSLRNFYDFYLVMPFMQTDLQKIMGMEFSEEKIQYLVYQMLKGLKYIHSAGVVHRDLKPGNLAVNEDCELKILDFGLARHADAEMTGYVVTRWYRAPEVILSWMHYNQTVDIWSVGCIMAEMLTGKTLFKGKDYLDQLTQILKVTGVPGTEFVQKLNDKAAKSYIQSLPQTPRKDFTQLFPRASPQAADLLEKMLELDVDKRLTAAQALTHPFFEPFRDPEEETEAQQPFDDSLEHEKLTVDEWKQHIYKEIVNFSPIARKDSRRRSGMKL
Put plainly: Inhibition of SAPK4 (unknown origin) assessed as enzyme activity at 1 uM using 33P ATP by radioactive filter binding assay. Details: scale not given: the % may be the effect or the level left.

The target in test [7] is T4, Inhibitor of nuclear factor kappa-B kinase subunit beta (Homo sapiens) (UniProt O14920).
T4 sequence (whole entry): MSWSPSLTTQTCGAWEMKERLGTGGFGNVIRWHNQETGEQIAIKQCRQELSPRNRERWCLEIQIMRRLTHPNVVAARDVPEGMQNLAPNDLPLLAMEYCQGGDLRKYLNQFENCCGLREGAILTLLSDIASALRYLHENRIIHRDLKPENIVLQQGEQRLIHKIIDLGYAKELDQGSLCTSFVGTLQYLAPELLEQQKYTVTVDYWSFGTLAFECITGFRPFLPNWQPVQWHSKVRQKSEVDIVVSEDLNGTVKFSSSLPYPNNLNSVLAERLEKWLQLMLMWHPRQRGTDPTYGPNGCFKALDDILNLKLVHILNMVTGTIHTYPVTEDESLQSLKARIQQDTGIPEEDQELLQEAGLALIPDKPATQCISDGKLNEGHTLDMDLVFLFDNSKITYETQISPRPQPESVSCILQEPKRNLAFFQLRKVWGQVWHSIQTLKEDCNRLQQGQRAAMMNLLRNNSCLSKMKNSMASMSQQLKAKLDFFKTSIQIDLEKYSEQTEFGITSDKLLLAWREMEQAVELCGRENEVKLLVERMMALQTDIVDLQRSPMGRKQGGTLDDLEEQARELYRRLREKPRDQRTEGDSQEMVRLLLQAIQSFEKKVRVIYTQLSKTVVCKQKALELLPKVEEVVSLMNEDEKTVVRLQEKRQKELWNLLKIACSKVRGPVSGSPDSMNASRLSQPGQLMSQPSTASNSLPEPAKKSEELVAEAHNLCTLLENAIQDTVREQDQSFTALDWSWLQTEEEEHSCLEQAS
Put plainly: Inhibition of human IKKbeta (1 to 736 residues) assessed as enzyme activity at 1 uM using 33P ATP by radioactive filter binding assay. More on the design: scale not given: the % may be the effect or the level left.

For test [8], the target named is Phosphatidylinositol 4,5-bisphosphate 3-kinase catalytic subunit alpha isoform (Homo sapiens, UniProt P42336). The test is described as follows: Inhibition of PI3K alpha (unknown origin).
Phosphatidylinositol 4,5-bisphosphate 3-kinase catalytic subunit alpha isoform, sequence (P42336 whole entry, canonical isoform): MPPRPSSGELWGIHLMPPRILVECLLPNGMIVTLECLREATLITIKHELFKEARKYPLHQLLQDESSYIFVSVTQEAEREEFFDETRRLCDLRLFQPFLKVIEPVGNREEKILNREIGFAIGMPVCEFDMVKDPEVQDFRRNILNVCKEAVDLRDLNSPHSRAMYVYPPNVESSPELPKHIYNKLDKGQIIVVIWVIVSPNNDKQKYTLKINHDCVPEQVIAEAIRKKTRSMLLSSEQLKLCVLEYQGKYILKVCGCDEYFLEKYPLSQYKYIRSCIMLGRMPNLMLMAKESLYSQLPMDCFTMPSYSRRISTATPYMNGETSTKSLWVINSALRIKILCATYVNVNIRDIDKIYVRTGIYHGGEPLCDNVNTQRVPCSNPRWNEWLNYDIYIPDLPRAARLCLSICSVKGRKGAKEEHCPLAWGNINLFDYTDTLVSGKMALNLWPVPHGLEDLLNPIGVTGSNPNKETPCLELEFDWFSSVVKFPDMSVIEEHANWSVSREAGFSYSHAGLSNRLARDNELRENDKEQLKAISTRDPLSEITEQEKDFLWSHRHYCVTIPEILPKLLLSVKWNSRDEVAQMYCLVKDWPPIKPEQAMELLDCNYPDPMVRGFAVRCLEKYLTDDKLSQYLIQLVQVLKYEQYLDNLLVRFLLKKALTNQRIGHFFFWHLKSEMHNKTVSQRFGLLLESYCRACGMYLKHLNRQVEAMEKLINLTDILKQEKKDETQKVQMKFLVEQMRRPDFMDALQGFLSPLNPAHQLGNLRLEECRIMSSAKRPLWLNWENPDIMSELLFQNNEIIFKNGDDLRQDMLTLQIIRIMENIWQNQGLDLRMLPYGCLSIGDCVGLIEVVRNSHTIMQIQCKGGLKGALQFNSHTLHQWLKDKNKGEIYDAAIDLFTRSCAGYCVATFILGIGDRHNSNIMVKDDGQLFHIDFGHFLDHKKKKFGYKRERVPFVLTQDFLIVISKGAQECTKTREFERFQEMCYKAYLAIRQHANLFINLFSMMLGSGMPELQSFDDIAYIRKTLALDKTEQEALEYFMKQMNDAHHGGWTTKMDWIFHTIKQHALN
The target of test [9] is Mitogen-activated protein kinase 8 (Homo sapiens) (UniProt P45983). The test is described as follows: Inhibition of human JNK1alpha1 assessed as enzyme activity at 1 uM using 33P ATP by radioactive filter binding assay. More on the design: scale not given: the % may be the effect or the level left.
Mitogen-activated protein kinase 8 (Homo sapiens), sequence (P45983 whole entry): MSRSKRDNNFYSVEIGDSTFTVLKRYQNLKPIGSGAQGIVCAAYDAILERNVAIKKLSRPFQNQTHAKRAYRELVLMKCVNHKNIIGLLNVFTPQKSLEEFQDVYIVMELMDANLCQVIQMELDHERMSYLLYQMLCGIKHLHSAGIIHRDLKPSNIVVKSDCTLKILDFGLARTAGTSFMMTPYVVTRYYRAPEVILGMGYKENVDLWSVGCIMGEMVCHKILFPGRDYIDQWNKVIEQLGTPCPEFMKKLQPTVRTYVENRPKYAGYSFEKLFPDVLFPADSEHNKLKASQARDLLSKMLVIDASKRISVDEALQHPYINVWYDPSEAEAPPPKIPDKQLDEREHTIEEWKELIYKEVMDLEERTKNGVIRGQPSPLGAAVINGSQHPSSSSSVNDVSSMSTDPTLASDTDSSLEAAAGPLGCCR

Glycogen synthase kinase-3 beta (Homo sapiens), sequence (P49841 whole entry, looked up, the tested form may be a part): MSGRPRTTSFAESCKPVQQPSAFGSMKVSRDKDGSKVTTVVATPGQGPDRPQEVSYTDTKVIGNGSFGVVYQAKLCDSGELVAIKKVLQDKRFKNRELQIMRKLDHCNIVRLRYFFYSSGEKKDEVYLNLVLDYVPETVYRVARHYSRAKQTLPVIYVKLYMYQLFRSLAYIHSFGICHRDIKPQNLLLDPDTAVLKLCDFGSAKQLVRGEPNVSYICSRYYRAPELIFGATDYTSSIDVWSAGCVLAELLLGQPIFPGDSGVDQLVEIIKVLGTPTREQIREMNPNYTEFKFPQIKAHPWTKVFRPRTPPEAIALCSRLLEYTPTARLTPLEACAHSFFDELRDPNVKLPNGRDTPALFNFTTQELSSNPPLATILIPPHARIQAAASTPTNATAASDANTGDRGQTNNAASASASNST

On to `CCCCc1cc(-c2c[nH]c3ncc(-c4cnn(C5CCNCC5)c4)cc23)nc(N)n1`, for which the Activity is 0% in test [1]; -92% in test [2]; -69% in test [3]; -94% in [4]; -65% in [5]; -34% in [6]. Also, the Activity in [7] was -63%; in test [9] it was -41%. Further, in test [8], the IC50 (as a rule, the concentration needed to halve the response being measured) is 5.5 µM.
Regarding `Nc1nccc(-c2c[nH]c3ncccc23)n1` [MERIOLIN 1], the Activity in [1] was -22%; in test [2], -12%; in test [3], 12%; in [4], -77%; in test [5] it was -16%; in [6], -27%. Besides, the Activity in [7] is -45%; in [9], -5%. This compound also gave an IC50 in test [8] of over 10 µM.
For the compound `CCCCc1cc(-c2c[nH]c3ncccc23)nc(N)n1`, the Activity in [1] was 14%; in test [2] it was -54%; in [3], -9%; in [4], -86%; in test [5], -12%; in test [6], -37%. Also, the Activity is -27% in [7] and -6% in [9]. This compound registered an IC50 in test [8] of over 10 µM.
`CCc1cc(-c2c[nH]c3ncc(-c4cnn(C5CCNCC5)c4)cc23)nc(N)n1`: the Activity in [1] was -10%; in test [2] it was -80%; in test [4], -94%; in [5] it was -65%; in test [6] it was -22%; in [7], -46%. The Activity in test [9] is -31%.
